Results: patent US9339034B2, “Use of thaxtomin for selective control of rice and aquatic based weeds” (MARRONE BIO INNOVATIONS, INC., priority 2009, dated 2016)

Experiments:
direct-seeded rice = assay: First study, crop safety; assay type: in vivo; settings: rates up to 750 g a.i. per hectare
transplanted rice = assay: First study, crop safety; assay type: in vivo; settings: all rates tested (64 to 1000 g a.i. per hectare)
SPZ = assay: Greenhouse pot study, weed control; assay type: in vivo, Sphenoclea zeylanica
CYI = assay: Greenhouse pot study, weed control; assay type: in vivo, Cyperus iria
LEF = assay: Greenhouse pot study, weed control; assay type: in vivo
WPL = assay: Greenhouse pot study, weed control; assay type: in vivo, Alisma-plamago aquatica
Source text: (§1) Moderate suppression (60%) was noted on Echinochloa colonum at 500 g a.i. per hectare.

Echinochloa colonum = assay: First study, weed control; assay type: in vivo; settings: 500-1000 g a.i. per hectare
[1] = tested on: most of the Echinochloa spp.; assay: Greenhouse pot study, weed control; assay type: in vivo; settings: up to the highest rate tested; 1000 g a.i. per hectare
Source text: as §1

DSA = assay: Greenhouse pot study, weed control; assay type: in vivo, Heteranthem limosa
[2] = tested on: TPL (transplanted 'M202' Japonica-type rice); assay: Greenhouse pot study, effect on crop growth, transplanted rice; assay type: in vivo; settings: for effect on crop growth (rice): TPL

In the case of CN1C(=O)[C@](O)(Cc2cccc(O)c2)N(C)C(=O)[C@@H]1Cc1c[nH]c2cccc([N+](=O)[O-])c12 [thaxtomin A], the “growth reductions to direct-seeded rice” value (direct-seeded rice) is reported as “only slight growth reductions”, the “safety to transplanted rice” value (transplanted rice) is reported as “complete safety” and the “% control” value (SPZ; 64 g/ha) is reported as 0%. For the same compound, the “% control” value (SPZ; 125 g/ha) was 90%, the “% control” value (SPZ; 250 g/ha) was 90% and the “% control” value (SPZ; 500 g/ha) was 100%. The “% control” value (SPZ; 1000 g/ha) was 100%, the “% control” value (CYI; 64 g/ha) was 45% and the “% control” value (CYI; 125 g/ha) was 45%. For the same compound, the “% control” value (CYI; 250 g/ha) was 95%, the “% control” value (CYI; 500 g/ha) was 100% and the “% control” value (CYI; 1000 g/ha) was 100%. For the same compound, the “% control” value (LEF; 64 g/ha) was 0%, the “% control” value (LEF; 125 g/ha) was 50% and the “% control” value (LEF; 250 g/ha) was 60%. For the same compound, the “% control” value (LEF; 500 g/ha) was 70%, the “% control” value (LEF; 1000 g/ha) was 100% and the “% control” value (WPL; 64 g/ha) was 0%. The “% control” value (WPL; 125 g/ha) was 70%, the “% control” value (WPL; 250 g/ha) was 95% and the “% control” value (WPL; 500 g/ha) was 100%. For the same compound, the “% control” value (WPL; 1000 g/ha) was 100%, the “% control” value (Echinochloa colonum) was 90-100% and the “activity on Echinochloa spp.” value [1] was “weakness”. For the same compound, the “% control” value (DSA; 64 g/ha) was 0%, the “% control” value (DSA; 125 g/ha) was 100% and the “% control” value (DSA; 250 g/ha) was 100%. The “% control” value (DSA; 500 g/ha) was 100%, the “% control” value (DSA; 1000 g/ha) was 100% and the “selectivity on transplanted rice” value ([2]; 1000 g a.i.) was “excellent selectivity”. The “effect on crop growth (rice)” value ([2]; 64 g/ha) was 0%, the “effect on crop growth (rice)” value ([2]; 125 g/ha) was 0% and the “effect on crop growth (rice)” value ([2]; 250 g/ha) was 0%. For the same compound, the “effect on crop growth (rice)” value ([2]; 500 g/ha) was 0%, the “effect on crop growth (rice)” value ([2]; 1000 g/ha) was 10% and the rice selectivity ([2]; transplanted 'M202' Japonica-type rice, 500 g a.i. per hectare) was “excellent rice selectivity”.
